Read-outs that look alike come from different tables or passages of the source.
Experiments:
[1] = tested on: human urinary bladder cancer cell line SW780; test: Cytotoxicity assay (CellTiter-Glo, 72 h), SW780; assay type: cell-based; conditions: read-out: Cytotoxicity (IC50, nM) SW-780
Description: (§1) Cytotoxicity of SDC-TRAP molecules was determined in three cancer cell lines. […] 80 μL of CellTiter-Glo was added to each well, followed by room temperature incubation in the dark for 15 minutes. Cell was determined by luminescence. IC50 was calculated using XLfit™ software.

[2] = tested on: human breast cancer cell line BT-474; test: Cytotoxicity assay (CellTiter-Glo, 72 h), BT-474; assay type: cell-based; conditions: read-out: Cytotoxicity (IC50, nM) BT-474
Description: as §1

[3] = tested on: human urinary bladder cancer cell line RT-112; test: Cytotoxicity assay (CellTiter-Glo, 72 h), RT-112; assay type: cell-based; conditions: read-out: Cytotoxicity (IC50, nM) RT-112
Description: as §1

[4] = tested on: HER2; test: HER2 degradation assay with BT-474 cell line (Example 12, FACS); assay type: cell-based, human
[5] = Artificial membrane permeability assay (PAMPA)
[6] = Mouse plasma stability protocol, up to 1 h (Examples 16-18)
Description: 150 ng/mL solution of SDC-TRAP-0002 in methanol was prepared using the internal standard spiking solution. This solution was used to precipitate all plasma samples in the study. 200 μL was pipetted into a 96 deepwell plate over dry ice. 10 μL of 1 mM stock in DMSO was added to a 1.5 mL microfuge tube, then 990 μL of plasma. Samples were mixed by vortex, then 50 μL of each sample was added in triplicate to a 96-well plate containing internal standard solution. This was designated the 0 hour time point sample. 250 μL of the remaining plasma sample was added to each of four 96 deepwell plates—one per time point. Samples were incubated at 37° C. with gentle shaking for 0.25, 0.5, and 1 hour. After each time point, one plate of each sample was removed from the shaker and placed on wet ice for approximately 2 minutes. 50 μL at plasma aliquots (in triplicate) were added to the deepwell plate containing internal standard solution. After the last time point was extracted, the 96 deepwell plate was vortexed, then centrifuged at 2-8° C. 150 μL of supernatant was collected and 25 μL at of water was added. Samples were mixed and analyzed by LC-MS/MS.
990 μL mouse plasma aliquots from a common stock were spiked with 10 μL of 1 mM stock of one of seven SDC-TRAP samples identified in the table below. Each sample was mixed and divided into 250 μL aliquots, each representing time points 0, 15 minutes, 30 minutes or 1 hour. At the prescribed time point, 3×50 μL samples were each mixed with 200 μL of methanol containing internal standard and held on dry ice until all time point samples were extracted. The samples collectively were vortex mixed for 1.5 minutes at 1500 rpm, then centrifuged at 4400 rpm for 10 minutes at 8° C.

[7] = Tissue Distribution Data for SDC-TRAP-0195
[8] = SDC-TRAP-0063 PK in male SD rats (slow IV bolus); assay type: in vivo; conditions: of monitored analyte
[9] = SDC-TRAP-0063 PK in male CD-1 mice (IV bolus); assay type: in vivo; conditions: of monitored analyte
[10] = % Remaining of parent after 1 h incubation in mouse plasma at 37° C. (10 μM)
[11] = dosed SDC-TRAP-0063 10 mpk slow IV bolus
[12] = dosed SDC-TRAP-0063 50 mpk slow IV bolus
[13] = dosed SDC-TRAP-0063 100 mpk slow IV bolus
[14] = dosed SDC-TRAP-0063 150 mpk slow IV bolus
[15] = dosed SDC-TRAP-0063 50 mpk IV bolus
[16] = dosed SDC-TRAP-0063 100 mpk IV bolus
[17] = dosed SDC-TRAP-0063 200 mpk IV bolus

For CC(C)c1cc(-c2nnc(O)n2-c2ccc3c(c2)CN(C(=O)c2ccc(CCc4c[nH]c5nc(N)[nH]c(=O)c45)cc2)C3)c(O)cc1O [SDC-TRAP-0093, 2-amino-5-(4-(5-(3-(2,4-dihydroxy-5-isopropylphenyl)-5-hydroxy-4H-1,2,4-triazol-4-yl)isoindoline-2-carbonyl)phenethyl)-3H-pyrrolo[2,3-d]pyrimidin-4(7H)-one], the IC50 ([1]; SW780, 72 hours) was > 10000 nM, the IC50 ([2]; BT-474, 72 hours) was 1540 nM and the IC50 ([3]; RT-112, 72 hours) was 1290 nM.
CCc1c2c(nc3ccc(OC(=O)N4CCN(C(=O)Cn5ccc6cc(-n7c(O)nnc7-c7cc(C(C)C)c(O)cc7O)ccc65)CC4C)cc13)-c1cc3c(c(=O)n1C2)COC(=O)C3(O)CC (centres unmarked) [SDC-TRAP-0201, 4,11-Diethyl-4-hydroxy-3,14-dioxo-3,4,12,14-tetrahydro-1H-pyrano[3′,4′:6,7]indolizino[1,2-b]quinolin-9-yl 4-(2-(5-(3-(2,4-dihydroxy-5-isopropylphenyl)-5-hydroxy-4H-1,2,4-triazol-4-yl)-1H-indol-1-yl)acetyl)-2-methylpiperazine-1-carboxylate] showed an IC50 ([1]; SW780, 72 h) of 1100 nM, an IC50 ([2]; BT-474, 72 h) of 1410 nM and an IC50 ([3]; RT-112, 72 h) of 72 nM. The IC50 [4] was 4670 nM.
In the case of CCc1c2c(nc3ccc(O)cc13)-c1cc3c(c(=O)n1C2)COC(=O)[C@@]3(CC)OC(=O)N1CCC(CCn2ccc3cc(-n4c(O)nnc4-c4cc(C(C)C)c(O)cc4O)ccc32)CC1 [SDC-TRAP-0064, (S)-4,11-diethyl-9-hydroxy-3,14-dioxo-3,4,12,14-tetrahydro-1H-pyrano[3′,4′:6,7]indolizino[1,2-b]quinolin-4-yl 4-(2-(5-(3-(2,4-dihydroxy-5-isopropylphenyl)-5-hydroxy-4H-1,2,4-triazol-4-yl)-1H-indol-1-yl)ethyl)piperidine-1-carboxylate], the “Mass Retention” value ([5]; same protocol, second table) is reported as 48.4%, the IC50 [4] is reported as 1130 nM and the “% Remaining (1 h)” value [6, 10] is reported as 91.5%. The “% Remaining (1 h)” value ([6]; mouse plasma, 37° C., 10 μM) was 91.5% and the “% Remaining (1 h, 37° C.)” value ([6]; mouse plasma, 37° C.) was 91.5%.
In the case of CCNC(=O)c1nnc(-c2cc(C(C)C)c(O)cc2O)n1-c1ccc(CN2CCC(C(=O)N3CCN(c4cc(C)c(OC(=O)Nc5cccc6c5CN(C5CCC(=O)NC5=O)C6=O)c(C)c4)CC3)CC2)cc1 (centres unmarked) [SDC-TRAP-0195, 4-(4-(1-(4-(3-(2,4-dihydroxy-5-isopropylphenyl)-5-(ethylcarbamoyl)-4H-1,2,4-triazol-4-yl)benzyl)piperidine-4-carbonyl)piperazin-1-yl)-2,6-dimethylphenyl (2-(2,6-dioxopiperidin-3-yl)-1-oxoisoindolin-4-yl)carbamate], the “Plasma Conc.” value ([7]; Time (h) 0.083) is reported as 1220 µM, the “Tumor Conc.” value ([7]; Time (h) 0.083) is reported as 17.1 nmol/g of tissue and the “Tumor/Plasma Ratio” value ([7]; Time (h) 0.083) is reported as 0.0140. For the same molecule, the “Plasma Conc.” value ([7]; Time (h) 1) was 211 µM, the “Tumor Conc.” value ([7]; Time (h) 1) was 23.0 nmol/g of tissue and the “Tumor/Plasma Ratio” value ([7]; Time (h) 1) was 0.109. For the same molecule, the “Plasma Conc.” value ([7]; Time (h) 6) was 7.23 µM, the “Tumor Conc.” value ([7]; Time (h) 6) was 17.1 nmol/g of tissue and the “Tumor/Plasma Ratio” value ([7]; Time (h) 6) was 2.36. The “Plasma Conc.” value ([7]; Time (h) 24) was 2.03 µM, the “Tumor Conc.” value ([7]; Time (h) 24) was 11.2 nmol/g of tissue and the “Tumor/Plasma Ratio” value ([7]; Time (h) 24) was 5.50. For the same molecule, the “Plasma Conc.” value ([7]; Time (h) 48) was “BQL”, the “Tumor Conc.” value ([7]; Time (h) 48) was 12.6 nmol/g of tissue and the “Mass Retention” value ([5]; incubation 5 h, first table) was 27.1%. The IC50 [4] was 49 nM and the “% Remaining (1 h)” value [6, 10] was 98.4%.
In the case of CCc1c2c(nc3ccc(OC(=O)N4CCC[C@H]4C(=O)N4CCN(c5ccc(-n6c(O)nnc6-c6cc(C(C)C)c(O)cc6O)cc5)CC4)cc13)-c1cc3c(c(=O)n1C2)COC(=O)[C@]3(O)CC [SDC-TRAP-0204, (S)—(S)-4,11-diethyl-4-hydroxy-3,14-dioxo-3,4,12,14-tetrahydro-1H-pyrano[3′,4′:6,7]indolizino[1,2-b]quinolin-9-yl 2-(4-(4-(3-(2,4-dihydroxy-5-isopropylphenyl)-5-hydroxy-4H-1,2,4-triazol-4-yl)phenyl)piperazine-1-carbonyl)pyrrolidine-1-carboxylate], the IC50 ([1]; SW780, 72 h) is reported as > 10000 nM, the IC50 ([2]; BT-474, 72 h) is reported as 8060 nM and the IC50 ([3]; RT-112, 72 h) is reported as 1310 nM. For the same molecule, the IC50 [4] was > 10000 nM.
For CCNC(=O)c1nnc(-c2cc(C(C)C)c(O)cc2O)n1-c1ccc2c(ccn2CCC2CCN(C(=O)Oc3ccc4nc5c(c(CC)c4c3)Cn3c-5cc4c(c3=O)COC(=O)[C@]4(O)CC)CC2)c1 [SDC-TRAP-0205, (S)-4,11-diethyl-4-hydroxy-3,14-dioxo-3,4,12,14-tetrahydro-1H-pyrano[3′,4′:6,7]indolizino[1,2-b]quinolin-9-yl 4-(2-(5-(3-(2,4-dihydroxy-5-isopropylphenyl)-5-(ethylcarbamoyl)-4H-1,2,4-triazol-4-yl)-1H-indol-1-yl)ethyl)piperidine-1-carboxylate], the “Mass Retention” value ([5]; same protocol, second table) was 10.9%, the IC50 [4] was 564 nM and the “% Remaining (1 h)” value [6, 10] was 58.4%. For the same molecule, the “% Remaining (1 h, 37° C.)” value ([6]; mouse plasma, 37° C.) was 58.4%.
With CCNC(=O)c1nnc(-c2cc(C(C)C)c(O)cc2O)n1-c1ccc(CN2CCC(C(=O)N3CCC(C(=O)N[C@H]4C[C@H](O[C@H]5C[C@](O)(C(=O)CO)Cc6c(O)c7c(c(O)c65)C(=O)c5c(OC)cccc5C7=O)O[C@@H](C)[C@H]4O)CC3)CC2)cc1 [SDC-TRAP-0198, 1-(1-(4-(3-(2,4-dihydroxy-5-isopropylphenyl)-5-(ethylcarbamoyl)-4H-1,2,4-triazol-4-yl)benzyl)piperidine-4-carbonyl)-N-((2S,3S,4S,6R)-3-hydroxy-2-methyl-6-(((1S,3S)-3,5, 12-trihydroxy-3-(2-hydroxyacetyl)-10-methoxy-6,11-dioxo-1,2,3,4,6,11-hexahydrotetracen-1-yl)oxy)tetrahydro-2H-pyran-4-yl)piperidine-4-carboxamide] the IC50 ([1]; SW780, 72 hours) was > 10000 nM, the IC50 ([2]; BT-474, 72 hours) was 786 nM and the IC50 ([3]; RT-112, 72 hours) was 297 nM. For the same molecule, the IC50 ([4]; BT-474 cells, overnight) was > 10000 nM.
CC(C)c1cc(C(=O)N2Cc3ccc(NC(=O)CCCc4nc5cc(N(CCCl)CCCl)ccc5n4C)cc3C2)c(O)cc1O [SDC-TRAP-0211, 4-(5-(bis(2-chloroethyl)amino)-1-methyl-1H-benzo[d]imidazol-2-yl)-N-(2-(2,4-dihydroxy-5-isopropylbenzoyl)isoindolin-5-yl)butanamide] gave an IC50 ([1]; SW780, 72 h) of 2340 nM, an IC50 ([2]; BT-474, 72 h) of 249 nM and an IC50 ([3]; RT-112, 72 h) of 110 nM. It also gave an IC50 ([4]; BT-474 cells, overnight) of 289 nM.
In the case of COc1cccc2c1C(=O)c1c(O)c3c(c(O)c1C2=O)C[C@@](O)(/C(CO)=N/NC(=O)CCn1ccc2cc(-n4c(O)nnc4-c4cc(C(C)C)c(O)cc4O)ccc21)C[C@@H]3O[C@H]1C[C@H](N)[C@H](O)[C@H](C)O1 [SDC-TRAP-0219, (E)-N′-(1-((2S,4S)-4-(((2R,4S,5S,6S)-4-amino-5-hydroxy-6-methyltetrahydro-2H-pyran-2-yl)oxy)-2,5,12-trihydroxy-7-methoxy-6,11-dioxo-1,2,3,4,6,11-hexahydrotetracen-2-yl)-2-hydroxyethylidene)-3-(5-(3-(2,4-dihydroxy-5-isopropylphenyl)-5-hydroxy-4H-1,2,4-triazol-4-yl)-1H-indol-1-yl)propanehydrazide], the IC50 ([1]; SW780, 72 hours) is reported as > 10000 nM, the IC50 ([2]; BT-474, 72 hours) is reported as > 10000 nM and the IC50 ([3]; RT-112, 72 hours) is reported as 973 nM.
CCc1c2c(nc3ccc(OC(=O)N4CCC(CCn5ccc6cc(-n7c(O)nnc7-c7cc(C(C)C)c(O)cc7O)ccc65)CC4)cc13)-c1cc3c(c(=O)n1C2)COC(=O)C3(O)CC (centres unmarked) [compound 0063] gave an AUCinf [8, 11] of 38.8 µM·h, an AUCt [8, 11] of 38.8 µM·h and a CL [8, 11] of 4.9 mL/min/kg. For the same molecule, the Cmax [8, 11] was 102 µM, the Tmax [8, 11] was 4.98 min and the Vss [8, 11] was 0.0590 L/kg. The Vz [8, 11] was 0.441 L/kg, the t1/2 [8, 11] was 60 min and the AUCinf [8, 12] was 687 µM·h. It also gave an AUCt [8, 12] of 687 µM·h, a CL [8, 12] of 1.38 mL/min/kg and a Cmax [8, 12] of 659 µM. For the same molecule, the Tmax [8, 12] was 4.98 min, the Vss [8, 12] was 0.0640 L/kg and the Vz [8, 12] was 0.0924 L/kg. It also gave a t1/2 [8, 12] of 48 min, an AUCinf [8, 13] of 1786 µM·h and an AUCt [8, 13] of 1785 µM·h. It also gave a CL [8, 13] of 1.08 mL/min/kg, a Cmax [8, 13] of 1210 µM and a Tmax [8, 13] of 4.98 min. The Vss [8, 13] was 0.0654 L/kg, the Vz [8, 13] was 0.153 L/kg and the t1/2 [8, 13] was 96 min. It also gave an AUCinf [8, 14] of 5302 µM·h, an AUCt [8, 14] of 5302 µM·h and a CL [8, 14] of 0.547 mL/min/kg. The Cmax [8, 14] was 1900 µM, the Tmax [8, 14] was 30 min and the Vss [8, 14] was 0.0663 L/kg. For the same molecule, the Vz [8, 14] was 0.0855 L/kg, the t1/2 [8, 14] was 108 min and the AUCinf [9, 15] was 237 µM·h. It also gave an AUCt [9, 15] of 235 µM·h, a CL [9, 15] of 4 mL/min/kg and a Cmax [9, 15] of 414 µM. The Tmax [9, 15] was 4.98 min, the Vss [9, 15] was 0.122 L/kg and the Vz [9, 15] was 0.659 L/kg. For the same molecule, the t1/2 [9, 15] was 114 min, the AUCinf [9, 16] was 549 µM·h and the AUCt [9, 16] was 549 µM·h. The CL [9, 16] was 3.45 mL/min/kg, the Cmax [9, 16] was 799 µM and the Tmax [9, 16] was 4.98 min. The Vss [9, 16] was 0.241 L/kg, the Vz [9, 16] was 0.747 L/kg and the t1/2 [9, 16] was 150 min. It also gave an AUCinf [9, 17] of 2884 µM·h, an AUCt [9, 17] of 2882 µM·h and a CL [9, 17] of 1.32 mL/min/kg. For the same molecule, the Cmax [9, 17] was 1620 µM, the Tmax [9, 17] was 4.98 min and the Vss [9, 17] was 0.173 L/kg. For the same molecule, the Vz [9, 17] was 0.307 L/kg and the t1/2 [9, 17] was 162 min.

From patent US10828315B2 (Madrigal Pharmaceuticals, Inc., priority 2013, dated 2020)
